Measurements reported in patent publication US20060154235A1, “Human hepatocyte-like cells and uses thereof” (Takahiro Ochiya, priority 2005, published 2006).

Test system: CYP1A1
Experiment: P450-GLO activity assay, CYP1A1 induction in hMSC-derived hepatocytes
Settings: inducer for 2 days

In the case of `Cc1ccc2cc3c(ccc4ccccc43)c3c2c1CC3` [3-methylcholanthrene], the “CYP1A1 activity after inducer treatment” value is reported as “induced”.
